Each compound was assayed against T1, GPX4 (Homo sapiens, UniProt P36969) (assay: GPX4 activity assay in cell lysates (NADPH-coupled)). Settings: 200 μM.
T1 sequence (P36969 1-170 isoform P36969-2): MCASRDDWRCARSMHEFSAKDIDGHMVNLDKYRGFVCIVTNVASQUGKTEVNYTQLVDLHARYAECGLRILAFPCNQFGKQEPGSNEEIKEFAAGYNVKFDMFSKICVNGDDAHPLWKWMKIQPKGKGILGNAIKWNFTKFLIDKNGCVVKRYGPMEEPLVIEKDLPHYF
Type: biochemical
Set-up: endogenous in cells; host or cells: A-673 cell lysate
Experimental: Determination of GPX4 activity in cell lysates was performed as previously described by Roveri et al. 1994 with minor modifications. Briefly, the assay measures the consumption of NADPH, which has a characteristic absorbance at 340 nm, over time as a proxy for GPX4 activity. The rationale for this is that as GPX4 reduces phospholipid hydroperoxides, it oxidizes glutathione, which is then regenerated by glutathione reductase at the expense of NADPH. NADPH is added to the assay in excess such that the reduction of oxidized glutathione is not the rate-limiting reaction in the assay. Thus, the resulting reduction in NADPH absorbance over time reflects GPX4 activity.
The GPX4-specific substrate phosphatidylcholine hydroperoxide (PCOOH) was prepared by enzymatic hydroperoxidation. Specifically, 0.3 mM phosphatidylcholines (Sigma-Aldrich) were incubated with 0.7 mg soybean lipoxidase type IV (Sigma-Aldrich) in 22 mL of 0.2 M Tris-HCl pH 8.8 with 3 mM sodium deoxycholate at room temperature under continuous stirring for 30 minutes. A Sep-Pak C18 cartridge (Waters-Millipore) was pre-washed with methanol and equilibrated with water, then the substrate mixture was loaded. The column was washed with 10 volumes of water and PCOOH was eluted with 2 mL of methanol.
To prepare the cell lysate containing native GPX4, A-673 cells were cultured with 20 nM sodium selenite to confluency over two days then harvested and washed with cold PBS. Cells were then resuspended at 10 million cells per 1 mL LCW lysis buffer (0.5% peroxide-free Triton X-100, 0.5% sodium deoxycholate salt, 150 mM NaCl, 20 mM Tris-HCl pH 7.5, 10 mM EDTA, 30 mM sodium pyrophosphate, and complete protease inhibitor cocktail), vortexed for 30 seconds, and incubated on ice for 15 minutes. After lysis, the lysates were centrifuged at 14,000×g and 4° C. for 15 minutes. The supernatants were transferred to new pre-chilled tube and the debris pellet was discarded. The protein concentration in the lysate was determined for normalization using the BCA Protein Assay Kit (Pierce).
To measure GPX4 activity, 50 μL of cell lysate was combined with 200 μL activity assay buffer (0.1% Triton X-100, 100 mM Tris-HCl pH 8.0, 10 mM sodium azide, 5 mM EDTA, 0.6 IU/mL glutathione reductase, 0.5 mM NADPH and 3 mM GSH) and compounds of interest in a clear 96-well plate and incubated at 37° C. for 45 minutes. Compounds were dissolved in DMSO. All conditions were tested in triplicate. PCOOH substrate was added to the mixture to initiate GPX4 activity just before reading the plate. The absorbance of NADPH at 340 nm was monitored kinetically over time for 25 minutes. Buffer-only controls and controls without substrate containing only the methanol vehicle were performed to assess background and baseline signal. GPX4 activity was calculated as previously reported by Stolwijk et al. 2020 and results were analyzed in GraphPad Prism 9.

SMILES	GPX4 inhibition [%]
CC(C)(COC(=O)CCl)NC(=O)c1c[nH]c2ccccc12 [QW-280]	76

Same assay, conditions: 200 μM; generation 1; mean ± s.d., n = 3

SMILES	GPX4% inhibition at 200 (μM) [%]
COc1cccc2[nH]c(C(=O)NC(C)(C)COC(=O)CBr)cc12 [QW-159]	56.0 ± 7.3
CC(C)(COC(=O)CBr)NC(=O)c1cc2ccccc2[nH]1 [QW-160]	33.3 ± 6.0
Cc1ccc2[nH]c(C(=O)NC(C)(C)COC(=O)CBr)cc2c1 [QW-161]	65.0 ± 7.2
COc1ccc2cc(C(=O)NC(C)(C)COC(=O)CBr)[nH]c2c1 [QW-162]	103.8 ± 7.6
CC(C)(COC(=O)CBr)NC(=O)c1cc2cc(Cl)ccc2[nH]1 [QW-165]	73.9 ± 5.3
C=CC(=O)OCC(C)(C)NC(=O)c1cc2ccccc2[nH]1 [QW-166]	1.8 ± 8.0
C=CC(=O)OCC(C)(C)NC(=O)c1cc2cc(Cl)ccc2[nH]1 [QW-167]	7.8 ± 12.8
C=CC(=O)OCC(C)(C)NC(=O)c1cc2c(OC)cccc2[nH]1 [QW-168]	−8.8 ± 10.8
C=CC(=O)OCC(C)(C)NC(=O)c1cc2ccc(Br)cc2[nH]1 [QW-169]	14.0 ± 8.6
C=CC(=O)OCC(C)(C)NC(=O)c1cc2cc(C)ccc2[nH]1 [QW-170]	5.3 ± 10.0
C=CC(=O)OCC(C)(C)NC(=O)c1cc2cc([N+](=O)[O-])ccc2[nH]1 [QW-172]	16.1 ± 16.0
CC(C)(COC(=O)CCl)NC(=O)c1cccs1 [QW-259]	27.7 ± 26.1
CC(C)(COC(=O)CBr)NC(=O)c1cccs1 [QW-260]	41.1 ± 4.6
C=CC(=O)OCC(C)(C)NC(=O)c1cccs1 [QW-261]	23.2 ± 17.0
Cc1onc(C(=O)OCC(C)(C)NC(=O)c2cccs2)c1[N+](=O)[O-] [QW-262]	−0.6 ± 7.8
CC(C)(COC(=O)CCl)NC(=O)Cc1cc2ccccc2[nH]1 [QW-265]	61.2 ± 11.3
CC(C)(COC(=O)CBr)NC(=O)Cc1cc2ccccc2[nH]1 [QW-266]	48.8 ± 3.3
C=CC(=O)OCC(C)(C)NC(=O)Cc1cc2ccccc2[nH]1 [QW-267]	14.7 ± 5.7
Cc1onc(C(=O)OCC(C)(C)NC(=O)Cc2cc3ccccc3[nH]2)c1[N+](=O)[O-] [QW-268]	−8.0 ± 15.8
CC(C)(COC(=O)CCl)NC(=O)CCc1cc2ccccc2[nH]1 [QW-270]	65.5 ± 1.6
CC(C)(COC(=O)CBr)NC(=O)CCc1cc2ccccc2[nH]1 [QW-271]	40.2 ± 5.2
CC(C)(COC(=O)CCl)NC(=O)c1cc2ccccc2s1 [QW-274]	27.5 ± 4.4
CC(C)(COC(=O)CBr)NC(=O)c1cc2ccccc2s1 [QW-275]	63.1 ± 3.6
C=CC(=O)OCC(C)(C)NC(=O)c1cc2ccccc2s1 [QW-276]	5.9 ± 4.4

SMILES	GPX4% inhibition at 200 (μM) [%]
Cc1onc(C(=O)OCC(C)(C)NC(=O)c2cc3ccccc3s2)c1[N+](=O)[O-] [QW-277]	12.4 ± 20.1
CC(C)(COC(=O)CCl)NC(=O)c1c[nH]c2ccccc12 [QW-280]	75.9 ± 15.5
CC(C)(COC(=O)CBr)NC(=O)c1c[nH]c2ccccc12 [QW-281]	58.7 ± 11.5
C=CC(=O)OCC(C)(C)NC(=O)c1c[nH]c2ccccc12 [QW-282]	12.7 ± 4.7
Cc1onc(C(=O)OCC(C)(C)NC(=O)c2c[nH]c3ccccc23)c1[N+](=O)[O-] [QW-283]	−6.6 ± 8.5
COc1ccc2cc(C(=O)NC(C)(C)CCOC(=O)CCl)[nH]c2c1 [QW-284]	71.0 ± 22.2
COc1ccc2cc(C(=O)NC(C)(C)CCOC(=O)CBr)[nH]c2c1 [QW-285]	77.9 ± 7.6
C=CC(=O)OCCC(C)(C)NC(=O)c1cc2ccc(OC)cc2[nH]1 [QW-286]	11.5 ± 7.1
CC(C)(COC(=O)CCl)NC(=O)c1ccc[nH]1 [QW-290]	20.6 ± 9.0
CC(C)(COC(=O)CBr)NC(=O)c1ccc[nH]1 [QW-291]	20.0 ± 4.0
C=CC(=O)OCC(C)(C)NC(=O)c1ccc[nH]1 [QW-292]	7.9 ± 5.3
Cc1onc(C(=O)OCC(C)(C)NC(=O)c2ccc[nH]2)c1[N+](=O)[O-] [QW-293]	−13.1 ± 14.6
C=CC(=O)OCCNC(=O)c1cc2ccc(OC)cc2[nH]1 [QW-301]	3.3 ± 1.2
COc1ccc2cc(C(=O)NCC(C)(C)COC(=O)CCl)[nH]c2c1 [QW-302]	68.9 ± 1.8
O=C(CCl)OCCCNC(=O)c1cc2cc(Cl)ccc2[nH]1 [QW-304]	78.3 ± 4.3
C=CC(=O)OCCCNC(=O)c1cc2cc(Cl)ccc2[nH]1 [QW-306]	6.2 ± 7.5
COc1ccc2cc(C(=O)NC(C)(C)COC(=O)CCl)n(C)c2c1 [QW-320]	84.3 ± 9.3
Cn1c(C(=O)NC(C)(C)COC(=O)CCl)cc2ccc(Br)cc21 [QW-321]	90.3 ± 4.8
COc1ccc2[nH]cc(C(=O)NC(C)(C)COC(=O)CCl)c2c1 [QW-322]	16.0 ± 4.9
Cn1cc(C(=O)NC(C)(C)COC(=O)CCl)c2ccc(Br)cc21 [QW-325]	76.6 ± 3.9
Cn1cc(C(=O)NC(C)(C)COC(=O)C#C[Si](C)(C)C)c2ccc(Br)cc21 [QW-337]	67.2 ± 3.4
CC(C)(COC(=O)CCl)NC(=O)c1cc2cc(F)ccc2[nH]1 [QW-338]	42.6 ± 7.0
CC(C)(COC(=O)CCl)NC(=O)c1cc2cc(F)c(F)cc2[nH]1 [QW-339]	43.4 ± 11.5
CC(C)(COC(=O)CCl)NC(=O)c1cc2ccc(F)cc2[nH]1 [QW-353]	69.6 ± 6.2

Same assay, conditions: 200 μM; generation 2

SMILES	GPX4% inhibition at 200 (μM) [%]
CC(C)(COC(=O)CCl)NC(=O)c1n[nH]c2ccccc12 [QW-296]	83.1 ± 21.9
CC(C)(COC(=O)CBr)NC(=O)c1n[nH]c2ccccc12 [QW-297]	73.1 ± 14.6
C=CC(=O)OCC(C)(C)NC(=O)c1n[nH]c2ccccc12 [QW-298]	7.9 ± 8.2
Cc1onc(C(=O)OCC(C)(C)NC(=O)c2n[nH]c3ccccc23)c1[N+](=O)[O-] [QW-299]	6.3 ± 4.7
COc1ccc2c(C(=O)NC(C)(C)COC(=O)CCl)n[nH]c2c1 [QW-326]	84.3 ± 8.9
Cn1nc(C(=O)N2CCN(C(=O)CCl)CC2)c2ccc(Br)cc21 [QW-330]	33.2 ± 6.8

Same assay, conditions: 200 μM; mean ± s.d., n = 3

SMILES	GPX4% inhibition at 200 (μM) [%]
O=C(c1cc2cc(Cl)ccc2[nH]1)n1ccnc1 [QW-002]	18.7 ± 15.8
O=C(c1cc2cc([N+](=O)[O-])ccc2[nH]1)n1ccnc1 [QW-049]	−2.6 ± 14.6
Cc1ccc2[nH]c(C(=O)n3ccnc3)cc2c1 [QW-056]	32.7 ± 18.4
O=C(c1c[nH]c2ccccc12)n1ccnc1 [QW-058]	37.8 ± 0.9
O=C(c1cc2ccccc2[nH]1)n1ccnc1 [QW-064]	31.9 ± 16.6

— US20250248979A1, “NOVEL GPX4 INHIBITORS AND USES THEREOF” (THE TRUSTEES OF COLUMBIA UNIVERSITY IN THE CITY OF NEW YORK, priority 2022, published 2025)
